Results: patent publication US20210378985A1, “METHOD AND COMPOUND FOR THE TREATMENT OF HEPATITIS C” (priority 2020, published 2021)

Columns and labels:
[1] = tested on: HIV-1; test: Co-cultivation of HIV-1 infected cells with uninfected target cells; format: cell-based
From the text: Viral pathogenesis in co-cultivation of infected cells with uninfected target cells presents a complex system with several target sites (attachment, fusion, transcription, processing, packaging and budding).
In many documented antiretroviral studies, the co-culture system is conventionally used to isolate the virus as well as to study cell-to-cell transmission or to determine if a given compound blocks cell fusion.

[2] = tested on: gamma interferon; test: Gamma interferon production stimulated by 90I; format: cell-based; conditions: versus positive control PMA-Ionomycin combination
[3] = tested on: HIV-1; test: Cell-based time course study (mode of action); conditions: drug addition at various time points
From the text: The time course study may be an important tool for the determination of viral kinetics and drug mode of action. The dynamics of drug-virus interaction, competitive or non-competitive, kinetics provides a dose response curve from which a broad lead mechanism of action can be drawn. The dynamics of the interactions relate to the viral kinetic of infection and drug addition at various time points.

[4] = tested on: HCV subgenomic replicon; conditions: at both mRNA and protein level; cited from earlier work
[5] = tested on: core protein in Huh 7 cells; conditions: cited from earlier work

O=C(OCCOCCOC(=O)c1ccccc1)c1ccccc1 [Compound 90I, diethylene glycol dibenzoate]
syncytium formation [1]: drastic drop of syncytium formation | cell viability ([1]; exponential cell growth dynamics): greater than ninety percent | amount of gamma interferon produced [2]: equivalent to that of the positive control | mode of action (early/late) [3]: works both early and late

C[C@@H]1CC[C@@]2(OC1)O[C@H]1C[C@H]3[C@@H]4CC=C5C[C@@H](O)CC[C@]5(C)[C@H]4CC[C@]3(C)[C@H]1[C@@H]2C [Diosgenin]
replication of HCV subgenomic replicon [4]: effectively blocked the replication of the HCV subgenomic replicon

O=C1C[C@@H](c2ccc(O)cc2)Oc2cc(O)cc(O)c21 [Naringenin]
activity of core protein ([5]; Huh 7 cells): suppressed the activity of core protein | assembly of HCV particles [5]: effectively blocked the assembly of HCV particles
